Like-named read-outs stand apart in the source and are kept apart here.
Key:
BACE1 = BACE1 (Homo sapiens, UniProt P56817); experiment: In vitro enzymatic BACE FRET assay; assay type: biochemical
Method: In Vitro Enzymatic BACE FRET (Fluorescence Resonance Energy Transfer) Assay
Enzyme Assay Data in the Example Table I
The assay buffer used in this screen is 0.05 M acetate, pH 4.2, 10% DMSO final, 100 uM genapol (which is a nonionic detergent, below its Critical Micelle Concentration). The Beta Secretase enzyme (0.2 nM) is pre-incubated for one hour with inhibitors, typically in about 1 uL of DMSO according to a serial dilution, are added thereto. This assay is effectively started by the addition of FRET substrate (50 nM) and the combination is incubated for one hour. The FRET assay is terminated with by addition of Tris buffer, which raises the pH to neutrality, and the fluorescence is determined. The FRET substrate is a peptide with commercially available fluorophore and quencher, on opposite sides of the BACE cleavage site. Proteolytic cleavage of the FRET substrate releases quenching of fluorescence (excitation 488 nm and […]).

[1] = tested on: Aβ40 in conditioned medium of cells stably expressing Amyloid Precursor Protein (APP); experiment: In vitro BACE cell-based assay (HEK cell assay, Aβ40 sandwich ELISA); conditions: Homo sapiens, HEK293
Method: In Vitro BACE Cell-Based Assay
The cell-based assay measures inhibition or reduction of Aβ40 in conditioned medium of test compound treated cells expressing amyloid precursor protein.
Cells stably expressing Amyloid Precursor Protein (APP) were plated at a density of 40K cells/well in 96 well plates (Costar). The cells were cultivated for 24 hours at 37° C. and 5% CO2 in DMEM supplemented with 10% FBS. The test compounds were then added to cells in 10-point dose response concentrations with the starting concentration being either 100 μM or 10 μM. The compounds were diluted from stock solutions in DMSO and the final DMSO concentration of the test compounds on cells was 0.1%. After 24 h of incubation with the test compounds the supernatant conditioned media was collected and the Aβ 40 levels were determined using a sandwich ELISA. The IC50 of the compound was calculated from the percent of control or percent inhibition of Aβ 40 as a function of the concentration of the test compound.
The sandwich ELISA to detect Aβ 40 was performed in 96 well microtiter plates, which were pre-treated with goat anti-rabbit IgG (Pierce). The capture and detecting antibody pair that were used to detect Aβ 40 from cell supernatants were affinity purified pAb40 (Biosource) and biotinylated 6E10 (Signet Labs Inc.), respectively. The optimal concentration for the pAb40 antibody was 3 μg/ml in Superblock/TBS (Pierce) that was supplemented with 0.05% Tween 20 (Sigma). Optimal concentration for the detection antibody 6E10-biotinylated was 0.5 μg/ml in Superblock/TBS (Pierce) that had been supplemented with 2% normal goat serum and 2% normal mouse serum.
Cellular supernatants were incubated with the capture antibody for 3 h at 4° C., followed by 3 wash steps in TBS-tween (0.05%). The detecting antibody incubation was for 2 h at 4° C., again followed by the wash steps as described previously. The final readout of the ELISA is Time-Resolved Fluorescence (counts per minute) using Delfia reagents Streptavidin-Europium and Enhancement solutions (Perkin Elmer) and the Victor 2 multilabel counter (Perkin Elmer).

Cathepsin D (Cat D) = target: T1, Cathepsin D (Cat D) (Homo sapiens, UniProt P07339); experiment: In vitro enzymatic Cathepsin D (Cat D) FRET assay; assay type: biochemical; conditions: read-out: CatD IC50
T1 construct: made in house; host or cells: CHO cells
Method: In Vitro Enzymatic Cathepsin D (Cat D) FRET (Fluorescence Resonance Energy Transfer) Assay
Recombinant Cat D was expressed in CHO cells. The assay buffer for CathepsinD is 0.05 M citrate pH 3.5, 10% DMSO final, 5 mM CHAPS. The Cat D enzyme (9 nM) is pre-incubated for one hour with inhibitors, typically in about 1 uL of DMSO according to a serial dilution, is added thereto. The assays are effectively started by the addition of different FRET substrates (20 nM for Cat D) and the combination is incubated for one hour. The FRET assay is terminated with by addition of Tris buffer, which raises the pH to neutrality, and the fluorescence is determined. The FRET substrate is a peptide with commercially available fluorophore and quencher, on opposite sides of the BACE cleavage site. The Cat D substrate peptide sequence is based on sequence #1 of Table 1 from Gulnik et al. FEBS Letters v413 p 379-384 1997. Proteolytic cleavage of the FRET substrate releases quenching of fluorescence (Cat D excitation 500 nm and emission 580 nm). […]
Where available, the in-vitro Cat D FRET assay data for each of the Examples, conducted by the first procedure, is provided in Tables 1 and 3. For example, the compound of example 28 has a Cat D IC50 value of >400 uM.

[2] = read-out: BACE1 FRET assay IC50
[3] = Aβ40, 24 h incubation, read-out: HEK cell assay IC50
[4] = average IC50, read-out: BACE1 Enzyme assay IC50
[5] = average IC50, read-out: BACE1 cell assay IC50

T1 sequence (P07339 65-412, species assumed): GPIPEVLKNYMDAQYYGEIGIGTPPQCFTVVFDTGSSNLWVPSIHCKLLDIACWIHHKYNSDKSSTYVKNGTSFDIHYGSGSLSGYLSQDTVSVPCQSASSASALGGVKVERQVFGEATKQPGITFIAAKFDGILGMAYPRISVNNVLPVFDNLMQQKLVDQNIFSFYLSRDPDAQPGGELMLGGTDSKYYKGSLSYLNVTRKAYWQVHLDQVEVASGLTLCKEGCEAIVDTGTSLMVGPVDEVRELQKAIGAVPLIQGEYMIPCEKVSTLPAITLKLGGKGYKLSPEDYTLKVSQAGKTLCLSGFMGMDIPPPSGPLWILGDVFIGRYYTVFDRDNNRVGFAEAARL
Chain of BACE1 (P56817 46-501, species assumed): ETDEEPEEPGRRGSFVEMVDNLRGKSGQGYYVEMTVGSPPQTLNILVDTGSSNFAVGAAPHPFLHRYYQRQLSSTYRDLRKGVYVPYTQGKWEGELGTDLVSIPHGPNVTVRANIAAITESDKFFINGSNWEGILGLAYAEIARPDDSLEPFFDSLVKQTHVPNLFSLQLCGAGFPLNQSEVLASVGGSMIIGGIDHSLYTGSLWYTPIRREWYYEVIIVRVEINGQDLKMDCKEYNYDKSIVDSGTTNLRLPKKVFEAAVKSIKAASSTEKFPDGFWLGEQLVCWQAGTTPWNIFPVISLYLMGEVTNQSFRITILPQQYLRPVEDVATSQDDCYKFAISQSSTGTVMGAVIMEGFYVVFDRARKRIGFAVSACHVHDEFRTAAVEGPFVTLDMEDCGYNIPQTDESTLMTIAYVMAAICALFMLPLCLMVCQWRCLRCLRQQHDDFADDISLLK

Row | IC50 (BACE1; [2]) [nM] | IC50 [1, 3] [nM] | IC50 (Cathepsin D (Cat D)) [µM] | IC50 (BACE1; [4]) [nM] | IC50 [1, 5] [nM] | IC50 (Cathepsin D (Cat D); average IC50, first procedure) [µM] | SMILES
1 | 33 | 163 | 4500 | – | – | – | C[C@]12CC[C@H]([C@@](C)(c3cc(Nc4ncc(F)c5cc(Cl)cnc45)ccc3F)N=C1N)S2(=O)=O [Example 30, N-(3-((1R,2R,5S)-4-amino-2,5-dimethyl-8,8-dioxido-8-thia-3-azabicyclo[3.2.1]oct-3-en-2-yl)-4-fluorophenyl)-3-chloro-5-fluoro-1,7-naphthyridin-8-amine]
2 | 37 | 57 | 45.8 | – | – | – | COc1cnc2c(Nc3ccc(F)c([C@@]4(C)N=C(N)[C@@]5(C)CCC[C@@H]4S5(=O)=O)c3)nccc2n1 [Example 1, (1R,4R,5S)-2-Amino-4-(2-fluoro-5-((2-methoxypyrido[3,4-b]pyrazin-5-yl)amino)phenyl)-1,4-dimethyl-9-thia-3-azabicyclo[3.3.1]non-2-ene 9,9-dioxide]
3 | 323 | 179 | 1210 | – | – | – | COc1cnc2c(Nc3ccc(F)c([C@@]4(C)N=C(N)[C@@H]5CCC[C@H]4S5(=O)=O)c3)nccc2n1 (stereo in doubt) [Example 19]
4 | – | – | – | 225 | 62 | > 348 | COc1cnc2c(Nc3ccc(F)c([C@@]4(C)N=C(N)[C@]5(C)CC[C@H]4S5(=O)=O)c3)nccc2n1 [Example 81, N-(3-((1R,2R,5S)-4-amino-2,5-dimethyl-8,8-dioxido-8-thia-3-azabicyclo[3.2.1]oct-3-en-2-yl)-4-fluorophenyl)-2-methoxypyrido[3,4-b]pyrazin-5-amine]
5 | – | – | – | 410 | 150 | > 400 | C[C@]1(c2cc(NC(=O)c3ccc(C(F)(F)F)cc3F)ccc2F)N=C(N)[C@@]2(C)CC[C@@H]1S2(=O)=O [Example 121, N-(3-((1S,2R,5R)-4-amino-2,5-dimethyl-8,8-dioxido-8-thia-3-azabicyclo[3.2.1]oct-3-en-2-yl)-4-fluorophenyl)-2-fluoro-4-(trifluoromethyl)benzamide]
6 | 9 | 2 | 17.7 | – | – | – | Cc1cc(OC(F)F)cnc1C(=O)Nc1ccc(F)c([C@@]2(C)N=C(N)[C@]3(C)CCC[C@@]2(C)S3(=O)=O)c1 [Example 14, N-(3-((1R,2R,5S)-4-Amino-1,2,5-trimethyl-9,9-dioxido-9-thia-3-azabicyclo[3.3.1]non-3-en-2-yl)-4-fluorophenyl)-5-(difluoromethoxy)-3-methylpicolinamide]
7 | 2 | 7 | 119 | – | – | – | Cc1cc(Cl)cnc1C(=O)Nc1ccc(F)c([C@@]2(C)N=C(N)[C@@]3(C)CCC[C@@H]2S3(=O)=O)c1 [Example 3, N-(3-((1S,2R,5R)-4-Amino-2,5-dimethyl-9,9-dioxido-9-thia-3-azabicyclo[3.3.1]non-3-en-2-yl)-4-fluorophenyl)-5-chloro-3-methylpicolinamide]
8 | 7 | 17 | 131 | – | – | – | Cc1cc(Cl)cnc1C(=O)Nc1ccc(F)c([C@@]2(C)N=C(N)[C@]3(C)CC[C@@]2(C)S3(=O)=O)c1 [Example 32, N-(3-((1R,2R,5S)-4-amino-1,2,5-trimethyl-8,8-dioxido-8-thia-3-azabicyclo[3.2.1]oct-3-en-2-yl)-4-fluorophenyl)-5-chloro-3-methylpicolinamide]
9 | – | – | – | 1 | 9 | 191 | C[C@]1(c2cc(Nc3ncc(F)c4cc(O)cnc34)ccc2F)N=C(N)[C@@]2(C)CC[C@@H]1S2(=O)=O [Example 39, (1R,4R,5S)-2-amino-4-(2-fluoro-5-((5-fluoro-3-hydroxy-1,7-naphthyridin-8-yl)amino)phenyl)-1,4-dimethyl-8-thia-3-azabicyclo[3.2.1]oct-2-ene 8,8-dioxide]
10 | – | – | – | 255 | 46 | 3260 | COCc1ccc(C(=O)Nc2ccc(F)c([C@@]3(C)N=C(N)[C@]4(C)CC[C@H]3S4(=O)=O)c2)nc1 [Example 91, N-(3-((1R,2R,5S)-4-amino-2,5-dimethyl-8,8-dioxido-8-thia-3-azabicyclo[3.2.1]oct-3-en-2-yl)-4-fluorophenyl)-5-(methoxymethyl)-2-pyridinecarboxamide]
11 | 8460 | > 15600 | 1540 | – | – | – | Cc1cc(Cl)cnc1C(=O)Nc1ccc(F)c([C@@]2(C)N=C(N)[C@H]3CC[C@@H]2S3(=O)=O)c1 [Example 33, N-(3-((1S,2R,5R)-4-amino-2-methyl-8,8-dioxido-8-thia-3-azabicyclo[3.2.1]oct-3-en-2-yl)-4-fluorophenyl)-5-chloro-3-methyl-2-pyridinecarboxamide]
12 | – | – | – | 8 | 7 | > 400 | C[C@]1(c2cc(NC(=O)c3ncc(C(F)(F)F)cc3Cl)ccc2F)N=C(N)[C@@]2(CF)CC[C@@H]1S2(=O)=O [Example 108, N-(3-((1S,2R,5R)-4-amino-5-(fluoromethyl)-2-methyl-8,8-dioxido-8-thia-3-azabicyclo[3.2.1]oct-3-en-2-yl)-4-fluorophenyl)-3-chloro-5-(trifluoromethyl)-2-pyridinecarboxamide]
13 | – | – | – | 7 | 16 | > 400 | C[C@]12CC[C@H]([C@@](C)(c3cc(NC(=O)c4ccc(C#CC5CC5)cn4)ccc3F)N=C1N)S2(=O)=O [Example 65, N-(3-((1R,2R,5S)-4-amino-2,5-dimethyl-8,8-dioxido-8-thia-3-azabicyclo[3.2.1]oct-3-en-2-yl)-4-fluorophenyl)-5-(cyclopropylethynyl)-2-pyridinecarboxamide]
14 | 16 | 81 | 1640 | – | – | – | Cc1cc(Cl)cnc1C(=O)Nc1ccc(F)c([C@@]2(C)N=C(N)[C@@H]3CC[C@H]2S3(=O)=O)c1 [Example 21, N-(3-((1R,2R,5S)-4-Amino-2-methyl-8,8-dioxido-8-thia-3-azabicyclo[3.2.1]oct-3-en-2-yl)-4-fluorophenyl)-5-chloro-3-methylpicolinamide]
15 | – | – | – | 93 | 482 | > 400 | COC[C@]12CC[C@H]([C@@](C)(c3cc(NC(=O)c4ncc(Cl)cc4C)ccc3F)N=C1N)S2(=O)=O [Example 142, N-(3-((1R,2R,5S)-4-amino-5-(methoxymethyl)-2-methyl-8,8-dioxido-8-thia-3-azabicyclo[3.2.1]oct-3-en-2-yl)-4-fluorophenyl)-5-chloro-3-methyl-2-pyridinecarboxamide]
16 | – | – | – | 11 | 4 | 66.6 | Cc1cc(C(F)(F)F)cnc1C(=O)Nc1ccc(F)c([C@@]2(C)N=C(N)[C@]3(C)CC[C@@]2(C)S3(=O)=O)c1 [Example 49, N-(3-((1R,2R,5S)-4-amino-1,2,5-trimethyl-8,8-dioxido-8-thia-3-azabicyclo[3.2.1]oct-3-en-2-yl)-4-fluorophenyl)-3-methyl-5-(trifluoromethyl)-2-pyridinecarboxamide]
